This is an account of results in ChEMBL document CHEMBL4477213, “Discovery and Optimization of Quinazolinone-pyrrolopyrrolones as Potent and Orally Bioavailable Pan-Pim Kinase Inhibitors” (J Med Chem, 2016).

In brackets after ≈: the same amount, converted by molar mass. Where only a bound is given, the exact number is not on record here.

Series [1] can be described thus: Half life in rat at 2 mg/kg, iv or 5 mg/kg, po. Conditions: in vivo. It counts as ADME, organism-based.
Series [2] deals with Serine/threonine-protein kinase PIM (Homo sapiens, UniProt P11309+Q9P1W9+Q86V86). The following applies: kms-12-bm.
Description: Inhibition of pan Pim in human KMS-12-BM cells assessed as reduction in phosphorylation of biotinylated-BAD peptide at Serine 112 residue after 110 mins by flow cytometry
A short description of series [3]: Clearance in rat at 2 mg/kg, iv. It counts as ADME, organism-based. Conditions: in vivo.
The nature of series [4]: Intrinsic clearance in human liver microsomes at 1 uM after 30 mins in presence of NADPH. It counts as ADME, Microsome. The following applies: read-out: CLH. A general note: Microsomes from liver hold many membrane-bound enzymes, among them those of drug oxidation.
Series [5] in a line: Oral bioavailability in rat at 5 mg/kg. It counts as ADME, organism-based. Conditions: in vivo.
Series [6] addresses Serine/threonine-protein kinase pim-2 (Homo sapiens, UniProt Q9P1W9). Briefly: Inhibition of full length recombinant Pim-2 (unknown origin) assessed as reduction in phosphorylation of biotinylated-BAD peptide at Serine 112 residue preincubated for 30 mins followed by substrate addition for 1 hr by HTRF assay.
Series [7] concerns the target Serine/threonine-protein kinase pim-1 (Homo sapiens, UniProt P11309).
Description: Inhibition of full length recombinant Pim-1 (unknown origin) assessed as reduction in phosphorylation of biotinylated-BAD peptide at Serine 112 residue preincubated for 30 mins followed by substrate addition for 1 hr by HTRF assay
Series [8] in a line: Volume of distribution at steady state in rat at 2 mg/kg, iv or 5 mg/kg, po. Conditions: in vivo, read-out: Vdss. The class given is ADME, organism-based.
A short description of series [9]: Intrinsic clearance in rat liver microsomes at 1 uM after 30 mins in presence of NADPH. Conditions: read-out: CLH. It counts as ADME, Microsome.
Series [10] is described as follows: Aqueous solubility of the compound in FaSIF at pH 6.8 after 1 hr by LC/MS analysis.

Serine/threonine-protein kinase pim-2, sequence (Q9P1W9 whole entry): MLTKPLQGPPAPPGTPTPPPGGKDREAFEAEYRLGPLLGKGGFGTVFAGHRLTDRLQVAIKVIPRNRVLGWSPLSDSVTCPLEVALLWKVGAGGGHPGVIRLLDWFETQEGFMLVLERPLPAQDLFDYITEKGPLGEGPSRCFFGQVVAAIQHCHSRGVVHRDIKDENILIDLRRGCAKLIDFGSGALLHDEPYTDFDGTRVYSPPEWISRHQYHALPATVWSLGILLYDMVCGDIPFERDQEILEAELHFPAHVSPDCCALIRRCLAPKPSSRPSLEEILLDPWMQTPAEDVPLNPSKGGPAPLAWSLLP
Serine/threonine-protein kinase pim-1, sequence (P11309 whole entry): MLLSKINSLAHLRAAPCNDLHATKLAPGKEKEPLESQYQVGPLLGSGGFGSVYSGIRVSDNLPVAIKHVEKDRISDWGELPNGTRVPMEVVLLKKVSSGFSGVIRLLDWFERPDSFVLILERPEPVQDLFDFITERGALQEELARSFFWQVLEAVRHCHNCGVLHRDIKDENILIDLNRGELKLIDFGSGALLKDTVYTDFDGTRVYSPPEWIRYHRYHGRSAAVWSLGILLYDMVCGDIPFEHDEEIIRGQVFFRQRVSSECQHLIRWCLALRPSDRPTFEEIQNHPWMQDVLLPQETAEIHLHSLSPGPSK

`Cc1nc2cccc(-c3cc4c([nH]3)C3(CC3)NC4=O)c2nc1NC(C)(C)C`: in series [1], the half-life was 4.5 h. Moreover, the IC50 in series [2] amounted to 78 nM; in series [6] it was 0.5 nM; in series [7], 0.4 nM. Further, in series [3], the clearance is 10 mL/min/kg. Besides, the microsomal CLint at 1 µM in [4] is 35 µL/min/mg; in series [9], 52 µL/min/mg. In series [5], this compound registered a bioavailability of 100%. Besides, the Vd in series [8] was found to be 1.3 L/kg.
`Cc1nc2cccc(-c3cc4c([nH]3)CNC4=O)c2nc1NC(C)(C)C` had a half-life in series [1] of 1.7 h. The IC50 amounted to 44 nM in series [2] and 0.9 nM in series [6]. This compound also had a clearance in series [3] of 26.7 mL/min/kg. In addition, the microsomal CLint at 1 µM in series [4] turned out to be 45 µL/min/mg; in series [9] it was 96 µL/min/mg. In series [5], this compound displayed a bioavailability of 36%. Further, in series [8], the Vd turned out to be 2.3 L/kg.
On to `Cc1c(NC(C)(C)C)nc2c(-c3cc4c([nH]3)[C@@H](C)NC4=O)cccn2c1=O`, for which the half-maximal inhibitory concentration (IC50) in [2] is greater than 2000 nM; in series [6], 2.1 nM; in series [7], 3.1 nM.
In the case of `Cc1nc2cccc(-c3cc4c(s3)C(=O)NC4)c2nc1NC(C)(C)C`, the IC50 in series [2] is 1380 nM; in [6], 2.5 nM; in series [7] it was 2.5 nM. Besides, the results for the microsomal CLint at 1 µM in [4] and in series [9] were 104 µL/min/mg and 373 µL/min/mg, respectively.
In the case of `Cc1nc2cccc(-c3cc4c([nH]3)[C@H](C)NC4=O)c2nc1NC(C)(C)C`, the results for the microsomal CLint at 1 µM in series [4] and in series [9] were 89 µL/min/mg and 130 µL/min/mg, respectively.
On to `Cc1nc2cccc(-c3cc4c([nH]3)C3(CCOCC3)NC4=O)c2nc1NC(C)(C)C`, for which the IC50 stood at 5760 nM in series [2], 117 nM in series [6] and 44 nM in series [7]. The microsomal CLint at 1 µM is less than 14 µL/min/mg in series [4] and 45 µL/min/mg in [9].
In series [1], `Cc1nc2cccc(-c3cc4c([nH]3)CCNC4=O)c2nc1NC(C)(C)C` gave a half-life of 4.7 h. The IC50 is 110 nM in [2], 0.6 nM in series [6] and 0.8 nM in series [7]. The clearance in series [3] is 11.7 mL/min/kg. The values for the microsomal CLint at 1 µM in [4] and in series [9] were 70 µL/min/mg and 86 µL/min/mg, respectively. The bioavailability in [5] turned out to be 6%. Moreover, in series [8], the Vd turned out to be 4.2 L/kg.
Regarding `Cc1nc2cccc(-c3[nH]c4c(c3Cl)C(=O)N[C@@H]4C)c2nc1NC(C)(C)C`, the microsomal CLint at 1 µM was found to be 111 µL/min/mg in series [4] and 143 µL/min/mg in series [9].
In the case of `C[C@H]1NC(=O)c2cc(-c3nccc4c(=O)n(C)c(NC(C)(C)C)nc34)[nH]c21`, the IC50 amounted to 1642 nM in series [2], 7.4 nM in series [6] and 4.5 nM in [7].
As to `Cc1nc2cccc(-c3cc4c(s3)CNC4=O)c2nc1NC(C)(C)C`, the IC50 in series [2] was 2870 nM; in series [6], 6.8 nM; in series [7], 6.4 nM. The microsomal CLint at 1 µM is 102 µL/min/mg in [4] and 326 µL/min/mg in series [9].
Regarding `Cc1nc2cccc(-c3cc4c([nH]3)CCCNC4=O)c2nc1NC(C)(C)C`, the microsomal CLint at 1 µM in series [4] is 67 µL/min/mg; in [9] it was 169 µL/min/mg.
As to `C[C@H]1NC(=O)c2cc(-c3cccc4c3N=C(NC(C)(C)C)N(C)S4(=O)=O)[nH]c21`, the IC50 worked out at 1142 nM in series [2], 5.2 nM in [6] and 6.5 nM in [7].
Take `Cc1nc2cccc(-c3cc4n(c3)CCNC4=O)c2nc1NC(C)(C)C`: the IC50 in series [2] turned out to be 4560 nM; in series [6], 6.1 nM; in [7], 6.6 nM. Moreover, the microsomal CLint at 1 µM in series [4] came to 85 µL/min/mg; in series [9] it was 205 µL/min/mg.
In turn, `Cc1nc2cccc3c2nc1N[C@H](C)/C=C\C[C@H]1CNC(=O)c2cc-3[nH]c21` showed a solubility at 1 h in series [10] of 295 µM (≈ 106 µg/mL).

In general, half-life refers to the time in which the quantity being followed falls by half. One may read the IC50 as the concentration that inhibits the measured activity by half. Broadly, the clearance is a measure of how efficiently the substance is removed, as volume per time. Read a low clearance as a low capacity for elimination. The term bioavailability denotes the share of a dose that reaches the circulation, judged against a reference dose that is usually intravenous. A higher bioavailability goes with much systemic uptake. In general, solubility refers to the concentration that dissolves in the medium under given conditions. A lower solubility goes with a poorly soluble substance.
